Assay results from patent publication US20080051387A1, “TETRAHYDROPYRIDO[3,4-D]PYRIMIDINES AND RELATED ANALOGUES” (priority 2006, published 2008).

Molecular target: T1, chimeric human H3 receptor (Homo sapiens, UniProt Q9Y5N1)
T1 construct: rat Galpha-i2 (Gnai2, rat); made in house; host or cells: Sf9 insect cells (baculovirus); P2 membranes
Test: Chimeric human H3 receptor screening GTP binding assay (inhibition of histamine-stimulated GTP-gamma35S binding, Example 8)
Format: biochemical
Details: 1 h; assay described in Example 8; symbol "!" in column headed Ki; read-out: Ki ("!": percent inhibition of agonist-induced GTP-gammaS binding to H3)
In short: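 Sf9 membranes co-expressing chimeric human H3 receptor and heterotrimeric G-protein (35 μg protein) incubated 60 min at room temperature with 4 μM compound, 1 μM histamine and 125 pM GTP-gamma35S in pH 7.4 buffer with 10 μM GDP. Filter-bound radioactivity, nonspecific (10 μM GTP-gammaS) subtracted, reported as % inhibition of histamine signal.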

T1 sequence (Q9Y5N1 with tags, fused parts or gaps): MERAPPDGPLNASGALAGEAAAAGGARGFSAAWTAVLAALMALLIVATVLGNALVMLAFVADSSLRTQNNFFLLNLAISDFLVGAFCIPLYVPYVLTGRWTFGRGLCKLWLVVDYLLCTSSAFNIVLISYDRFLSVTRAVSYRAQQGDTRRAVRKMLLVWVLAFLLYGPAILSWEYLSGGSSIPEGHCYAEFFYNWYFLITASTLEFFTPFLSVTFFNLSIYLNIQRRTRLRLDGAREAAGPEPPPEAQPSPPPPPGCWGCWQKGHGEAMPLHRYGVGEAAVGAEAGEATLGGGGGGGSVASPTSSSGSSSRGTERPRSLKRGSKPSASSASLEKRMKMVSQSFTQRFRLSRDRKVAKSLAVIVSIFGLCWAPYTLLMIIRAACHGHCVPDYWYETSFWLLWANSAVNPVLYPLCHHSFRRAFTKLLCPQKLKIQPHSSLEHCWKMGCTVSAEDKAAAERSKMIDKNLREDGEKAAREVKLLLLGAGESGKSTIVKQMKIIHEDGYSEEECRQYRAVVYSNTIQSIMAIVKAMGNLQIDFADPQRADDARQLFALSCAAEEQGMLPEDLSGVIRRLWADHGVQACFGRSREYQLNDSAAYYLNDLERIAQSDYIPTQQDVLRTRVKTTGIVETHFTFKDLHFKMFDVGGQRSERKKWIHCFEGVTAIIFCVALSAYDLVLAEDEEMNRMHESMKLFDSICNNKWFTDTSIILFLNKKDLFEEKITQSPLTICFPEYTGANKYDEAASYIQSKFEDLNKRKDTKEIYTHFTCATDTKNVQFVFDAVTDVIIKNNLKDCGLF

Row | inhibition at 4 µM [%] | Compound
1 | ≥ 90 | COc1cc(OC)cc(C(=O)N2CCc3cnc(N4CCN(C5CCC5)CC4)nc3CC2)c1 [Compound 381, 2-(4-cyclobutylpiperazin-1-yl)-7-(3,5-dimethoxybenzoyl)-6,7,8,9-tetrahydro-5H-pyrimido[4,5-d]azepine]
2 | ≥ 90 | CCOc1ccc(C(=O)N2CCc3cnc(N4CCN(C5CCC5)CC4)nc3CC2)cc1OCC [Compound 383, 2-(4-cyclobutylpiperazin-1-yl)-7-(3,4-diethoxybenzoyl)-6,7,8,9-tetrahydro-5H-pyrimido[4,5-d]azepine]
3 | ≥ 90 | COc1cc(C(=O)N2CCc3cnc(N4CCN(C5CCC5)CC4)nc3CC2)cc(OC)c1OC [Compound 384, 2-(4-cyclobutylpiperazin-1-yl)-7-(3,4,5-trimethoxybenzoyl)-6,7,8,9-tetrahydro-5H-pyrimido[4,5-d]azepine]
4 | ≥ 90 | CCOc1cc(C(=O)N2CCc3cnc(N4CCN(C5CCC5)CC4)nc3CC2)cc(OCC)c1OCC [Compound 385, 2-(4-cyclobutylpiperazin-1-yl)-7-(3,4,5-triethoxybenzoyl)-6,7,8,9-tetrahydro-5H-pyrimido[4,5-d]azepine]
5 | ≥ 90 | O=C(c1cccc(Cl)c1)N1CCc2cnc(N3CCN(C4CCC4)CC3)nc2CC1 [Compound 386, 7-(3-chlorobenzoyl)-2-(4-cyclobutylpiperazin-1-yl)-6,7,8,9-tetrahydro-5H-pyrimido[4,5-d]azepine]
6 | ≥ 90 | O=C(c1ccc(Cl)cc1)N1CCc2cnc(N3CCN(C4CCC4)CC3)nc2CC1 [Compound 387, 7-(4-chlorobenzoyl)-2-(4-cyclobutylpiperazin-1-yl)-6,7,8,9-tetrahydro-5H-pyrimido[4,5-d]azepine]
7 | ≥ 90 | Cc1cccc(C(=O)N2CCc3cnc(N4CCN(C5CCC5)CC4)nc3CC2)c1F [Compound 388, 2-(4-cyclobutylpiperazin-1-yl)-7-(2-fluoro-3-methylbenzoyl)-6,7,8,9-tetrahydro-5H-pyrimido[4,5-d]azepine]
8 | ≥ 90 | O=C(c1c(F)cccc1F)N1CCc2cnc(N3CCN(C4CCC4)CC3)nc2CC1 [Compound 389, 2-(4-cyclobutylpiperazin-1-yl)-7-(2,6-difluorobenzoyl)-6,7,8,9-tetrahydro-5H-pyrimido[4,5-d]azepine]

Row | Compound | inhibition at 4 µM [%]
9 | CCCCOc1ccc(C(=O)N2CCc3cnc(N4CCN(C5CCC5)CC4)nc3CC2)cc1 [Compound 382, 7-(4-butoxybenzoyl)-2-(4-cyclobutylpiperazin-1-yl)-6,7,8,9-tetrahydro-5H-pyrimido[4,5-d]azepine] | ≥ 90

Same assay, conditions: 1 h; assay of Example 8; symbol "!" in column headed Ki; read-out: percent inhibition of agonist-induced GTP-gammaS binding to H3

Row | inhibition at 4 µM [%] | Compound
10 | ≥ 90 | O=C(c1ccc(OC(F)F)cc1)N1CCc2cnc(N3CCN(C4CCC4)CC3)nc2CC1 [Compound 366, 2-(4-cyclobutylpiperazin-1-yl)-7-[4-(difluoromethoxy)benzoyl]-6,7,8,9-tetrahydro-5H-pyrimido[4,5-d]azepine]
11 | ≥ 90 | CCOc1ccc(C(=O)N2CCc3cnc(N4CCN(C5CCC5)CC4)nc3CC2)cc1 [Compound 368, 2-(4-cyclobutylpiperazin-1-yl)-7-(4-ethoxybenzoyl)-6,7,8,9-tetrahydro-5H-pyrimido[4,5-d]azepine]
12 | ≥ 90 | CSc1ccc(C(=O)N2CCc3cnc(N4CCN(C5CCC5)CC4)nc3CC2)cc1 [Compound 369, 2-(4-cyclobutylpiperazin-1-yl)-7-[4-(methylthio)benzoyl]-6,7,8,9-tetrahydro-5H-pyrimido[4,5-d]azepine]
13 | ≥ 90 | CCSc1ccc(C(=O)N2CCc3cnc(N4CCN(C5CCC5)CC4)nc3CC2)cc1 [Compound 370, 2-(4-cyclobutylpiperazin-1-yl)-7-[4-(ethylthio)benzoyl]-6,7,8,9-tetrahydro-5H-pyrimido[4,5-d]azepine]
14 | ≥ 90 | O=C(c1ccc(OC(F)(F)F)cc1)N1CCc2cnc(N3CCN(C4CCC4)CC3)nc2CC1 [Compound 373, 2-(4-cyclobutylpiperazin-1-yl)-7-[4-(trifluoromethoxy)benzoyl]-6,7,8,9-tetrahydro-5H-pyrimido[4,5-d]azepine]
15 | ≥ 90 | CCCOc1ccc(C(=O)N2CCc3cnc(N4CCN(C5CCC5)CC4)nc3CC2)cc1 [Compound 379, 2-(4-cyclobutylpiperazin-1-yl)-7-(4-propoxybenzoyl)-6,7,8,9-tetrahydro-5H-pyrimido[4,5-d]azepine]
16 | ≥ 90 | CC(C)Oc1ccc(C(=O)N2CCc3cnc(N4CCN(C5CCC5)CC4)nc3CC2)cc1 [Compound 380, 2-(4-cyclobutylpiperazin-1-yl)-7-(4-isopropoxybenzoyl)-6,7,8,9-tetrahydro-5H-pyrimido[4,5-d]azepine]

Further lines, the compound ahead of its results:

Row | Compound | inhibition at 4 µM [%]
17 | CC(C)(C)c1ccc(C(=O)N2CCc3cnc(N4CCN(C5CCC5)CC4)nc3CC2)cc1 [Compound 364, 7-(4-tert-butylbenzoyl)-2-(4-cyclobutylpiperazin-1-yl)-6,7,8,9-tetrahydro-5H-pyrimido[4,5-d]azepine] | ≥ 90
18 | O=C(c1ccc(-c2ccccc2)cc1)N1CCc2cnc(N3CCN(C4CCC4)CC3)nc2CC1 [Compound 365] | ≥ 90
19 | CCOc1cccc(C(=O)N2CCc3cnc(N4CCN(C5CCC5)CC4)nc3CC2)c1 [Compound 367, 2-(4-cyclobutylpiperazin-1-yl)-7-(3-ethoxybenzoyl)-6,7,8,9-tetrahydro-5H-pyrimido[4,5-d]azepine] | ≥ 90
20 | COc1ccc(C(=O)N2CCc3cnc(N4CCN(C5CCC5)CC4)nc3CC2)cc1F [Compound 371, 2-(4-cyclobutylpiperazin-1-yl)-7-(3-fluoro-4-methoxybenzoyl)-6,7,8,9-tetrahydro-5H-pyrimido[4,5-d]azepine] | ≥ 90
21 | O=C(c1ccc(Oc2ccccc2)cc1)N1CCc2cnc(N3CCN(C4CCC4)CC3)nc2CC1 [Compound 372, 2-(4-cyclobutylpiperazin-1-yl)-7-(4-phenoxybenzoyl)-6,7,8,9-tetrahydro-5H-pyrimido[4,5-d]azepine] | ≥ 90
22 | O=C(c1cccc(Oc2ccccc2)c1)N1CCc2cnc(N3CCN(C4CCC4)CC3)nc2CC1 [Compound 374, 2-(4-cyclobutylpiperazin-1-yl)-7-(3-phenoxybenzoyl)-6,7,8,9-tetrahydro-5H-pyrimido[4,5-d]azepine] | ≥ 90
23 | O=C(c1ccc2c(c1)CCO2)N1CCc2cnc(N3CCN(C4CCC4)CC3)nc2CC1 [Compound 375, 2-(4-cyclobutylpiperazin-1-yl)-7-(2,3-dihydro-1-benzofuran-5-ylcarbonyl)-6,7,8,9-tetrahydro-5H-pyrimido[4,5-d]azepine] | ≥ 90
24 | COc1ccc(C(=O)N2CCc3cnc(N4CCN(C5CCC5)CC4)nc3CC2)cc1OC1CCCC1 [Compound 376, 2-(4-cyclobutylpiperazin-1-yl)-7-[3-(cyclopentyloxy)-4-methoxybenzoyl]-6,7,8,9-tetrahydro-5H-pyrimido[4,5-d]azepine] | ≥ 90
25 | O=C(c1ccc2c(c1)OCO2)N1CCc2cnc(N3CCN(C4CCC4)CC3)nc2CC1 [Compound 377, 7-(1,3-benzodioxol-5-ylcarbonyl)-2-(4-cyclobutylpiperazin-1-yl)-6,7,8,9-tetrahydro-5H-pyrimido[4,5-d]azepine] | ≥ 90
26 | COc1ccc(C(=O)N2CCc3cnc(N4CCN(C5CCC5)CC4)nc3CC2)cc1OC [Compound 378, 2-(4-cyclobutylpiperazin-1-yl)-7-(3,4-dimethoxybenzoyl)-6,7,8,9-tetrahydro-5H-pyrimido[4,5-d]azepine] | ≥ 90
